From ChEMBL document CHEMBL1144842, “Design and campaign synthesis of piperidine- and thiazole-based histone deacetylase inhibitors” (Bioorg Med Chem Lett, 2008)
pIC50: −log10 of the molar value. The source made the active and inactive calls. The calls are words filed in the database; no cut-off is given here.

Experiments:
Histone deacetylase 1 = Histone deacetylase 1 (Homo sapiens, UniProt Q13547); experiment: Inhibition of human recombinant HDAC1 expressed in Hi5 cells; parameters: species or system BTI-TN-5B1-4
HCT-116 = experiment: Antiproliferative activity against human HCT116 cells after 72 hrs by MTS assay; type: functional, cell-based; settings: HCT-116, 72 h
Histone deacetylase = experiment: Inhibition of human HDAC in HeLa cells; type: cell-based
[1] = Lipophilicity, log D of the compound; settings: octanol/water
Cytochrome P450 2C9 = Cytochrome P450 2C9 (Homo sapiens, UniProt P11712)
[2] = Half life in mouse at 54.8 umol/kg, po; type: ADME, organism-based; settings: in vivo
[3] = Unbound ligand in mouse plasma at 54.8 umol/kg, po; type: ADME, organism-based
[4] = Volume of distribution in steady state in Han Wistar rat at 5 umol/kg, iv; type: ADME, organism-based; settings: in vivo, read-out: Vdss
[5] = Clearance in Han Wistar rat at 5 umol/kg, iv; type: ADME, organism-based; settings: in vivo
[6] = Unbound ligand in Han Wistar rat plasma at 10 umol/kg, po; type: ADME, organism-based
Cytochrome P450 2C19 = Cytochrome P450 2C19 (Homo sapiens, UniProt P33261)
Cytochrome P450 3A4 = Cytochrome P450 3A4 (Homo sapiens, UniProt P08684)
[7] = Half life in Han Wistar rat at 5 umol/kg, iv; type: ADME, organism-based; settings: in vivo
Cytochrome P450 2D6 = Cytochrome P450 2D6 (Homo sapiens, UniProt P10635)
[8] = Half life in Han Wistar rat at 10 umol/kg, po; type: ADME, organism-based; settings: in vivo
[9] = Clearance in mouse at 5 umol/kg, iv; type: ADME, organism-based; settings: in vivo
[10] = Half life in Han Wistar rat at 2.5 umol/kg, iv; type: ADME, organism-based; settings: in vivo
[11] = Half life in Beagle dog at 0.8 umol/kg, iv; type: ADME, organism-based, Canis lupus familiaris; settings: in vivo
[12] = Clearance in Beagle dog at 0.8 umol/kg, iv; type: ADME, organism-based, Canis lupus familiaris; settings: in vivo
[13] = Volume of distribution in steady state in Beagle dog at 0.8 umol/kg, iv; type: ADME, organism-based, Canis lupus familiaris; settings: in vivo, read-out: Vdss
[14] = Clearance in Han Wistar rat at 2.5 umol/kg, iv; type: ADME, organism-based; settings: in vivo
[15] = Unbound ligand in Beagle dog plasma at 3 umol/kg, po; type: ADME, organism-based, Canis lupus familiaris; settings: at 3 µmol/kg
[16] = Volume of distribution in steady state in Han Wistar rat at 2.5 umol/kg, iv; type: ADME, organism-based; settings: in vivo, read-out: Vdss
[17] = Volume of distribution in steady state in mouse at 5 umol/kg, iv; type: ADME, organism-based; settings: in vivo, read-out: Vdss
[18] = Unbound ligand in Han Wistar rat plasma at 54.8 umol/kg, po; type: ADME, organism-based; settings: at 54.8 µmol/kg
[19] = Half life in Han Wistar rat at 54.8 umol/kg, po; type: ADME, organism-based; settings: in vivo
[20] = Half life in mouse at 5 umol/kg, iv; type: ADME, organism-based; settings: in vivo
[21] = Half life in Beagle dog at 3 umol/kg, po; type: ADME, organism-based, Canis lupus familiaris; settings: in vivo
Homo sapiens = experiment: Antitumor activity against human A549a xenografted mouse at 12.5 mg/kg, po for 18 days; type: functional, organism-based; parameters: dose 12.5 mg/kg
[22] = Half life in Han Wistar rat at 70.9 umol/kg, po; type: ADME, organism-based; settings: in vivo
[23] = Solubility of the compound at pH 7.4; settings: buffer
[24] = Unbound ligand in Han Wistar rat plasma at 70.9 umol.kg, po; type: ADME, organism-based
[25] = Half life in mouse at 70.9 umol/kg, po; type: ADME, organism-based; settings: in vivo

Sequence of Cytochrome P450 3A4 (P08684 whole entry): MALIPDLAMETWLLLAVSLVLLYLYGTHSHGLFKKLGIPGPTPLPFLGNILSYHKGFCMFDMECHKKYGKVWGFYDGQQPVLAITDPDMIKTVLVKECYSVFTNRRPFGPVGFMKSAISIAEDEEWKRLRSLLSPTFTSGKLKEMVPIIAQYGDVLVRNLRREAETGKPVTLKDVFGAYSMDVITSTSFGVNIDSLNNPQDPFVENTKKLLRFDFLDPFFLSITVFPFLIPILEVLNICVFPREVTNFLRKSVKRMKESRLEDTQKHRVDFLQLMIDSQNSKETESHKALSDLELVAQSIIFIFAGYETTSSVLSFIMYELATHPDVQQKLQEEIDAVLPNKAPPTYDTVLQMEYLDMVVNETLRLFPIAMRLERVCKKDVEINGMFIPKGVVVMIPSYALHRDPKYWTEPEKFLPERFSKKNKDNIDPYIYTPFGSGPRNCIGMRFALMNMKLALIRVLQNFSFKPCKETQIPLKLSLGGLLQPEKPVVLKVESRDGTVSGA
Sequence of Histone deacetylase 1 (Q13547 whole entry): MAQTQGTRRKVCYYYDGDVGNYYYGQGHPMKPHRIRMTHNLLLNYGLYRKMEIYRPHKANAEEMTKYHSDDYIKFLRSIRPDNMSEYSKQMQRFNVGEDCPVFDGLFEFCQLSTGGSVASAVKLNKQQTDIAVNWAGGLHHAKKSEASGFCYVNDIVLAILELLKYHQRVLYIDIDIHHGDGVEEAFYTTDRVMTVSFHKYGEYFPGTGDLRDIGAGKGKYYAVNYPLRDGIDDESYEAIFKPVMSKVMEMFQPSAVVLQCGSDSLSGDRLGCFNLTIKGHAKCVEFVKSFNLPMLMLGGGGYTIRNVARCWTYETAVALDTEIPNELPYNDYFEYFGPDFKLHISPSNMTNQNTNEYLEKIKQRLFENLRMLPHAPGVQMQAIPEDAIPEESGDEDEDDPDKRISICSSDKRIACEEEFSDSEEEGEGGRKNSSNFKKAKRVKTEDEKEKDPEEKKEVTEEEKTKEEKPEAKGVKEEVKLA
Sequence of Cytochrome P450 2D6 (P10635 whole entry): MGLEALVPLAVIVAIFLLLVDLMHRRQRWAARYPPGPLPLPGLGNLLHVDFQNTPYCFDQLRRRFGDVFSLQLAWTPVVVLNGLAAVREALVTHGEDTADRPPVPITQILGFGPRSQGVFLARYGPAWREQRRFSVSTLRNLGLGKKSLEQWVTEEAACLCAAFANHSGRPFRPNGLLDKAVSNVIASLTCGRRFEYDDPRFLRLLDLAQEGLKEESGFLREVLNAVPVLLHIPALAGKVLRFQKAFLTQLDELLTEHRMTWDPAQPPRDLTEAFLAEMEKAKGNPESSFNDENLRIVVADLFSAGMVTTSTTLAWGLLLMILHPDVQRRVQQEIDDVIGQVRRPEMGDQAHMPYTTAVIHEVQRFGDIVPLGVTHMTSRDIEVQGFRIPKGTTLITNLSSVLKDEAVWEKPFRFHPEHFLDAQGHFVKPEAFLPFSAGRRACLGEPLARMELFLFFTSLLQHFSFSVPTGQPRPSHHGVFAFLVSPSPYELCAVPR
Sequence of Cytochrome P450 2C9 (P11712 whole entry): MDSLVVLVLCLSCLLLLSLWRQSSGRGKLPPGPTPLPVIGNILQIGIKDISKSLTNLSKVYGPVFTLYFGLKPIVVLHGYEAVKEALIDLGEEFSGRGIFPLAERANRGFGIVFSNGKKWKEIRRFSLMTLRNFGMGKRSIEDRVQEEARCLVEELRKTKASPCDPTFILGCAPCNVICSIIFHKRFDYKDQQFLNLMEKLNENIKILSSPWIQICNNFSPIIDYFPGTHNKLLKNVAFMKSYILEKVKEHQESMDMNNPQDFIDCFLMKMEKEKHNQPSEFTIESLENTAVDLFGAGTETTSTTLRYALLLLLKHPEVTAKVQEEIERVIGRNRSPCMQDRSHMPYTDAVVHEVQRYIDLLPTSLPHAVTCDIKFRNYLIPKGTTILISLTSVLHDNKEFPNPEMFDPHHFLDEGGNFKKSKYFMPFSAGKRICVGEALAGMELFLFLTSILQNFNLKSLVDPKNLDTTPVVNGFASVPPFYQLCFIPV
Sequence of Cytochrome P450 2C19 (P33261 whole entry): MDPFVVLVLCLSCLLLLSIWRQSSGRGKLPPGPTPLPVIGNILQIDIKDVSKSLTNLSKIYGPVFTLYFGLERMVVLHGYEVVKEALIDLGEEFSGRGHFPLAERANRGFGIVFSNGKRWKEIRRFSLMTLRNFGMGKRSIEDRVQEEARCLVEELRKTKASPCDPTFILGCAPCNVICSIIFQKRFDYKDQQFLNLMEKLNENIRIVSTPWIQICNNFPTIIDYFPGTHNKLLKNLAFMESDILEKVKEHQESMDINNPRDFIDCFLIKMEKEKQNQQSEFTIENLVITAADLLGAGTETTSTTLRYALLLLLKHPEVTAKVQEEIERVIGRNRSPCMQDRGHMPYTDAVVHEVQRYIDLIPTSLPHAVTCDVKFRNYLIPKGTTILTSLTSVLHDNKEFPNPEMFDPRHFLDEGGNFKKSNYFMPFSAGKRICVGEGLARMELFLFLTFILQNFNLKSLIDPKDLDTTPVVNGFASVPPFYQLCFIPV

| Compound | pIC50 (Histone deacetylase 1) | pIC50 (HCT-116) | Log IC50 (Histone deacetylase) | logD [1] | pIC50 (Cytochrome P450 2C9) | pIC50 (Cytochrome P450 2C19) | pIC50 (Cytochrome P450 3A4) | pIC50 (Cytochrome P450 2D6) | other results |
| --- | --- | --- | --- | --- | --- | --- | --- | --- | --- |
| Nc1ccccc1NC(=O)c1ccc(-c2ncc(CN3CCCCC3)s2)cc1 | 7.66 | 6.84 |  |  |  |  |  |  |  |
| Nc1ccccc1NC(=O)c1ccc(C2CCN(Cc3ccccc3)CC2)cc1 | 7.35 | 6.36 | -4.57 |  |  |  |  |  |  |
| CN1CCC(c2ccc(C(=O)Nc3ccccc3N)cc2)CC1 | 6.86 | 6.08 | -5.23 | < 0.5 |  |  |  |  |  |
| CN(C)C(=O)c1ccc(CN2CCC(c3ccc(C(=O)Nc4ccccc4N)cc3)CC2)cc1 | 7.07 | 6.32 |  | 1.53 | < 5.00 | < 5.00 | < 5.00 | < 5.00 | half-life [2]: 3.8 h; fraction unbound [3]: 0.4; Vd [4]: 3.1 L/kg; clearance [5]: 49 mL/min/kg; fraction unbound [6]: 0.28; half-life [7]: 1.6 h; half-life [8]: 2.1 h |
| Nc1ccccc1NC(=O)c1ccc(N2CCOCC2)cc1 |  | 5.13 | -4.78 | 1.2 |  |  |  |  |  |
| CCNC(=O)c1ccc(CN2CCC(c3ccc(C(=O)Nc4ccccc4N)cc3)CC2)cc1 | 7.46 | 6.44 |  |  |  |  |  |  | half-life [2]: 3.2 h; clearance [9]: 36 mL/min/kg; half-life [10]: 1.7 h; half-life [11]: 10.2 h; clearance [12]: 7 mL/min/kg; Vd [13]: 4.2 L/kg; clearance [14]: 16 mL/min/kg; fraction unbound [15]: 0.33; Vd [16]: 3.5 L/kg; Vd [17]: 5 L/kg; fraction unbound [18]: 0.21; half-life [19]: 3.7 h; half-life [20]: 4.8 h; half-life [21]: 7.2 h; Activity (Homo sapiens): Active |
| CNC(=O)c1ccc(CN2CCC(c3ccc(C(=O)Nc4ccccc4N)cc3)CC2)cc1 | 7.51 | 6.36 |  | 1.99 | < 5.00 | < 5.00 | < 5.00 | < 5.00 |  |
| Nc1ccccc1NC(=O)c1ccc(C2CCN(Cc3ccc(C(=O)NC4CC4)cc3)CC2)cc1 | 7.24 | 6.38 |  | 2.31 | < 5.00 | < 5.00 | < 5.00 | < 5.00 |  |
| Nc1ccccc1NC(=O)c1ccc(N2CCN(Cc3ccccc3)CC2)cc1 |  | 5.63 | -4.44 |  |  |  |  |  |  |
| Nc1ccccc1NC(=O)c1ccc(-c2nccs2)cc1 |  | 5.74 |  |  |  |  |  |  |  |
| Nc1ccccc1NC(=O)c1ccc(C2CCN(CCC(=O)Nc3ccccc3F)CC2)cc1 | 7.17 | 6.52 |  | 2.76 | 5.00 | 5.00 | 5.00 | 5.00 |  |
| CCNCc1cnc(-c2ccc(C(=O)Nc3ccccc3N)cc2)s1 | 7.42 | 6.69 |  |  |  |  |  |  | half-life [22]: 2.1 h; Vd [4]: 7.3 L/kg; clearance [5]: 38 mL/min/kg; solubility [23]: > 500 µM; fraction unbound [24]: 0.54; half-life [25]: 1.1 h; half-life [7]: 5.2 h |
| CCCNCc1cnc(-c2ccc(C(=O)Nc3ccccc3N)cc2)s1 | 7.56 | 6.73 |  |  |  |  |  |  | solubility [23]: > 500 µM |
